Assay results published in ChEMBL document CHEMBL3507680, “University of Dundee, Gates Library screen for HepG2 cell viability”.

Assay: Human HepG2 cell viability assay in 384 well format
Format: toxicity, cell-based
Parameters: dose 125 nL, time 70.5 hour; concentration not given beside the values
Conditions: HepG2 cells, read-out: Inhibition

Row | SMILES | cytotoxicity at 70.5 h
1 | CN1CCN(Cn2nc(-c3cccs3)ccc2=O)CC1 | -29.8%
2 | COc1ccc(C)cc1-c1csc(N)c1C#N | 13.2%
3 | COc1ccc(-c2csc(N)c2C#N)cc1 | -24.3%
4 | O=C1C(CS(=O)(=O)Nc2ccccc2)=NC(=O)n2cccc21 | -7.6%
5 | CC(C)c1ccc(NS(=O)(=O)CC2=NC(=O)n3cccc3C2=O)cc1 | -18.1%
6 | O=C1C(CS(=O)(=O)Nc2ccc(Cl)cc2)=NC(=O)n2cccc21 | -26.2%
7 | Cc1cccc(NC2CCc3c2[nH]c(=O)n(C2CCCCC2)c3=O)c1C (stereo unspecified) | -19.3%
8 | OCCNc1nc(Nc2ccccc2)c2nccnc2n1 | -0.149%
9 | CCn1nc2ccc(S(=O)(=O)N3CCSCC3)cn2c1=O | -9.47%
10 | Cc1cc(SCC(N)=O)nc(-c2ccc(F)cc2)n1 | -9.61%
11 | CC(C)(C)c1noc(-c2ccnc(-n3cnc(C(=O)O)c3)c2)n1 | -4.5%
12 | O=C(O)c1cc(-c2ccccc2)ns1 | -20.2%
13 | CC(C)c1noc(-c2ccc(-n3cnc(C(=O)O)c3)nc2)n1 | -15.8%
14 | CC(C)c1noc(-c2ccnc(-n3cnc(C(=O)O)c3)c2)n1 | -14.7%
15 | O=C(c1cnc2ccc(Cl)cc2c1NCc1ccco1)N1CCCCC1 | 23.3%
16 | COc1cccc(C(c2c(C)n[nH]c2O)c2c(C)n[nH]c2O)c1OC | -11.7%
17 | CCc1c(C)n(CC(C)=O)c2nc3ccccc3n2c1=O | -18.1%
18 | Cc1c(C(=O)N2CCN(c3ncccn3)CC2)n(C)c2ccc(Cl)cc12 | -7.85%
19 | CC(=O)c1cccc(-n2nc(C(C)=O)c(C(C)=O)c2C)c1 | -2.25%
20 | CC(=O)c1nn(-c2ccccc2Cl)c(C)c1C(C)=O | -10.3%
21 | COC(=O)CC(c1ccc(OC)c(OC)c1OC)c1c(O)n[nH]c1C (stereo unspecified) | -15.1%
22 | CC(C)CC(NC(=O)Nc1ccc(F)c(Cl)c1)C(=O)O (stereo unspecified) | -8.78%
23 | CC(=O)c1nn(-c2cccc(Cl)c2)c(C)c1C(C)=O | -12.9%

Row | SMILES | cytotoxicity at 70.5 h
24 | OCCNc1nc(NCc2cccnc2)nc2nccnc12 | 16.3%
25 | COCCNc1nc(NCCc2ccccc2)nc2nccnc12 | -1.44%
26 | COc1ccc(-c2nnsc2C(=O)N2CCN(C(C)=O)CC2)cc1 | -12.8%
27 | COc1cc(C2CC(=O)Nc3c2c(=O)[nH]n3C2CCCCC2)ccc1O (stereo unspecified) | -12.4%
28 | Cc1nc(CC(=O)N2CCC(c3ccn4nccc4n3)CC2)cs1 | 1.76%
29 | CCC(=O)NC(Cc1cc(N(C)C)nc(C2CC2)n1)c1ccccc1 (stereo unspecified) | -2.39%
30 | CS(=O)(=O)N1CCc2ccc(C(=O)N3CCn4ncnc4C3)cc21 | -1.85%
31 | Cc1cc(=O)[nH]c(NC2CCN(S(=O)(=O)c3ccccc3)CC2)n1 | -2.77%
32 | Cc1nc2c(c(=O)[nH]1)CN(Cc1ccc3c(c1)CCCN3C)CC2 | 1.02%
33 | O[C@@H]1C[C@H]2CN(Cc3ccccc3)[C@H](Cc3ccccc3)CN2C1 | 27.4%
34 | Cc1ccc(-c2nc(C3CCN(C(=O)c4cnn(C)c4)CC3)no2)cn1 | 24.5%
35 | Cc1nc(C)c(C(=O)N2CCc3nnc(C4CCCCN4C)n3CC2)s1 (stereo unspecified) | -8.99%
36 | COc1cc(CN2CCCC[C@]3(C)NC(=O)CC[C@H]23)ccc1F | -6.42%
37 | COCCC(=O)NCc1ccc(-c2ccccc2C(=O)O)cn1 | -6.35%
38 | Fc1ccc(Nc2ccc(C3CCN(Cc4ncc[nH]4)CC3)nc2)nc1 | -4.32%
39 | O=C(c1cnco1)N1CCC(Cc2cccc3ncccc23)CC1 | 20.4%
40 | COCCC(=O)N1CCC(c2nnc(-c3ccsc3)o2)CC1 | -6.73%
41 | Oc1cc(C2CCCCN2Cc2cccs2)nc(-c2ccncc2)n1 (stereo unspecified) | -11.8%
42 | Cc1ccc(-c2noc(C3CCN3C(=O)c3c(C)noc3C)n2)s1 (stereo unspecified) | -3.14%
43 | CC(=O)N1CCC(C(=O)N2CCC2c2nc(-c3ccc(C)s3)no2)CC1 (stereo unspecified) | 9.04%
44 | Cc1noc(C)c1C(=O)N1CCC(c2cc3cnccc3[nH]2)CC1 | -5.78%
45 | c1nc(N2CCCC2)cnc1C1CCNCC1 | -6.46%
46 | NC(=O)c1cccc(-c2cnc(C3CCCNC3)cn2)c1 (stereo unspecified) | -7.33%

Row | SMILES | cytotoxicity at 70.5 h
47 | Cc1cc(N2CCOC(c3ccccn3)C2)nc(N)n1 (stereo unspecified) | -3.03%
48 | Cn1ccnc1-c1nc(N2CCCCC2)ncc1-c1ccccc1F | -7.17%
49 | NC(=O)C1(Cc2ccccc2-c2cncnc2)CCCNC1 (stereo unspecified) | -10.3%
50 | CC(CN1CCOCC1)n1cncc1-c1cnn(Cc2ccccc2)c1 (stereo unspecified) | -2.84%
51 | COc1ccc(S(=O)(=O)N2CCOC(C)(C(N)=O)C2)cc1 (stereo unspecified) | -3.24%
52 | O=C1CN([C@@H]2CC[C@@H](NS(=O)(=O)c3ccccc3)[C@H]2O)CCN1 | -2.13%
53 | Cc1nccn1[C@@H]1CC[C@@H](N(C)S(=O)(=O)c2cccc(F)c2)[C@H]1O | -0.727%
54 | CN(C)c1ccc(C(=O)N2CCC(c3cc4ncccc4[nH]3)CC2)cc1 | -1.4%
55 | O=C(Cc1ccsc1)N1CCC[C@@H]1Cn1c(=O)oc2ccccc21 | -5.78%
56 | O=C(c1c(F)cccc1F)N1CCC[C@@H]1Cn1c(=O)oc2ccccc21 | -0.473%
57 | Cc1nc(N)cc(C2(C)CCCNC2)n1 (stereo unspecified) | -5.33%
58 | c1cn(-c2nccnc2C2CCCN(C3CCOCC3)C2)cn1 (stereo unspecified) | -5.56%
59 | CC(=O)N1CCC(c2ncc(C(=O)Nc3ccccc3)c(C)n2)CC1 | -4.36%
60 | Cn1ccc(C(=O)N2CCCC2c2cc(CCO)[nH]n2)n1 (stereo unspecified) | -1.26%
61 | CCN(CC)S(=O)(=O)N1CCCC(c2ncc3c(n2)CCN(C)C3)C1 (stereo unspecified) | 23.8%
62 | Fc1cccc(CN2CCC[C@H](Cn3nnc(-c4ccccn4)n3)C2)c1 | -4.05%
63 | Fc1cccc(CN2CCC[C@@H](Cn3nnc(-c4ccccn4)n3)C2)c1 | -5.77%
64 | Fc1ccccc1CN1CCC[C@@H](Cn2nnc(-c3cccs3)n2)C1 | -3.35%
65 | CC(NC(=O)C1CCCCC1)c1cc(O)nc(-c2cccnc2)n1 (stereo unspecified) | -4.35%
66 | CC(C)C(NC(=O)C1CC1)c1cc(O)nc(-c2cccnc2)n1 (stereo unspecified) | -0.322%
67 | COc1ccc(-c2cc(C3CCCCCN3S(C)(=O)=O)on2)cc1 (stereo unspecified) | -2.6%
68 | C=Cn1cc(CN2CCC(c3ncc(Cl)cc3S(C)(=O)=O)CC2)c(C)n1 | -3.31%
69 | CCn1cc(CN2CCC(c3ncc(Cl)cc3S(C)(=O)=O)CC2)c(C)n1 | 0.165%

Row | SMILES | cytotoxicity at 70.5 h
70 | C=Cn1ncc(CN2CCC(c3ncc(Cl)cc3S(C)(=O)=O)CC2)c1C | 10%
71 | CC(C)(C)c1ccc(C(=O)NCCCNC(=O)c2cnccn2)cc1 | -3.26%
72 | COc1ccc(-c2cc3nc(CCNC(=O)C4CC4)nn3cn2)cc1 | 16.8%
73 | COCC(=O)NCCc1nc2cc(-c3ccc(OC)cc3)ncn2n1 | -5.33%
74 | COc1ccc(-c2cc3nc(CCNC(=O)CN(C)C)nn3cn2)cc1 | -1.8%
75 | CN(C)S(=O)(=O)N1CCCCCC1c1cc(-c2ccc(F)cc2)no1 (stereo unspecified) | 1.28%
76 | O=C(NC1CC1)[C@H]1CN(Cc2ccccc2)C[C@@H]1C(=O)c1ccccc1 | -3.57%
77 | CNC(=O)[C@@H]1CN(Cc2ccccc2)C[C@H]1C(=O)c1ccc(F)cc1 | -1.84%
78 | O=C(c1ccccc1F)N1CCCC1Cn1c(=O)oc2ccccc21 (stereo unspecified) | -0.201%
79 | Cc1nn(CCC(=O)NC2CCCOC2)c(C)c1C (stereo unspecified) | -1.37%
80 | CN(CCc1ccncc1)Cc1c(C2CCCC2)[nH]c2ncccc12 | -1.56%
81 | CC(=O)N1CCCC1CCc1ccc(Cl)nn1 (stereo unspecified) | -2.45%
82 | Cc1ccncc1CN1CCOCC1c1[nH]ncc1C (stereo unspecified) | -1.54%
83 | Cc1cn[nH]c1C1COCCN1Cc1c[nH]cn1 (stereo unspecified) | 4.32%
84 | CC1(c2nccs2)CCN(C(=O)CCN2CCOCC2)CC1 | -1.94%
85 | CN1CCN(CC2(O)CCCN(S(=O)(=O)c3cn[nH]c3)CC2)CC1 (stereo unspecified) | -3.77%
86 | CN1CCCC1CCNC(=O)c1ccccc1-n1cc(CN)cn1 (stereo unspecified) | 1.23%
87 | CN(C)Cc1cccc(-c2cccnc2C(=O)NCc2ccco2)c1 | -4.14%
88 | O=C(Cc1ccc(Cl)cc1)N[C@@H]1CCC[C@@H](O)[C@@H]1O | -0.327%
89 | O=C(CCn1ccnc1)N1CC[C@H](Oc2ccc(F)cc2)[C@@H](O)CC1 | 0.282%
90 | CC(C)(C(=O)N[C@@H]1CCC[C@@H](O)[C@@H]1O)c1cccc(F)c1 | -4.01%
91 | Cc1cc(C)c2cc(CNCCCN3CCOCC3)c(=O)[nH]c2c1 | -7.01%
92 | O=c1[nH]c2ccccc2cc1CNCCCN1CCOCC1 | -1.38%

Row | SMILES | cytotoxicity at 70.5 h
93 | O=C1NCC2(CCCN(Cc3ccncc3)C2)Oc2ccccc21 (stereo unspecified) | -8.47%
94 | Cc1csc(C(Cc2ccsc2)NC(=O)C2CCN(S(C)(=O)=O)CC2)n1 (stereo unspecified) | -10%
95 | Cc1nc2cc(C3CCN(Cc4ccccc4F)C3)nn2c(O)c1C (stereo unspecified) | -3.81%
96 | CCS(=O)(=O)N1CCC(C(=O)NC(Cc2ccsc2)c2nccs2)CC1 (stereo unspecified) | 18.9%
97 | CCc1ncc(CN2CCc3nc4sc(C)cc4c(=O)n3CC2)cn1 | 17.6%
98 | O=C(Cn1cccnc1=O)NC(Cc1ccsc1)c1nccs1 (stereo unspecified) | 17.6%
99 | Cc1nc(C2CCN(C(=O)c3ccn(C)n3)CC2)c2sccn12 | -5.98%
100 | Cc1nc(C2CCN(C(=O)c3ccnn3C)CC2)c2sccn12 | -3.95%
101 | COc1ncc(C(=O)N2CCC(c3nc(C)n4ccsc34)CC2)cn1 | 24.2%
102 | CS(=O)(=O)c1snnc1C1CCN(Cc2ccc3nccnc3c2)CC1 | -5.73%
103 | Cc1cc(C)c2cc(CNCc3ccc(C)o3)c3nn(C)c(=O)n3c2c1 | -5.87%
104 | c1cc(NCc2ccncc2)nc(C2CCCN2)c1 (stereo unspecified) | 2.66%
105 | COc1ccc(F)cc1-c1ccccc1CC1CNCCNC1=O (stereo unspecified) | 2.28%
106 | Cn1nc(C2CCCN(Cc3cc(F)cc(F)c3)C2)c2nccnc21 (stereo unspecified) | -1.82%
107 | Cc1ccc(CN2Cc3ccccc3O[C@]3(CC[C@H](CO)CC3)C2)o1 | 52%
108 | Cc1cc(C)c2[nH]c(C)c(CC(=O)N(C)CCN(C)C)c2c1 | 1.29%
109 | COc1ccc(CN(C)[C@@H]2COC[C@H]2c2ccc(F)cc2)c(OC)c1 | 0.309%
110 | c1cnc2[nH]nc(C3CCN(Cc4ccsc4)CC3)c2c1 | -4.44%
111 | Fc1ccc(F)c(CN2CCC(c3n[nH]c4ncccc34)CC2)c1 | -7.24%
